In one experiment the test system is lysosome in U2OS cells. Briefly: Inhibitory lysosomal mechanism of action (LysoTracker Red and LAMP1 staining). The class given is cell-based. Particulars: for LAMP1 staining / LysoTracker Red staining: at 304 for 3 hours; for LysoTracker Red staining: LysoTracker Red for the final hour; for intensity of LysoTracker Red staining (image analysis, line scan): indicating an increase in pH. The procedure: To determine deacidification of the lysosome, cells were incubated with LysoTracker Red, a dye that localizes to the lysosome based on the low acidity of the compartment. If the lysosome is no longer acidic, there is a loss in the amount of LysoTracker Red staining. Lysosomal inhibition was further determined by immunofluorescence of lysosome-associated membrane protein-1 (LAMP1). If the lysosome is inhibited, lysosomal turnover should decrease and an increase in the amount of LAMP1 staining would be apparent. U2OS cells were treated with Example 7 or Example 26 at […] for 3 hours, supplementing LysoTracker Red for the final hour.
Using image analysis software, the mean intensities of both the LAMP1 and LysoTracker Red staining were measured and represent altered intensity level between treatments on intensity plots. Individual points were measured using a line scan on the image analysis software, which measures the intensity across the path of a line at any given point. Not only does the presence of LAMP1 positive membranes increases, but the intensity in LAMP1 staining also increases with Example 7 and Example 26 treatment. The inverse relationship in intensity holds true for LysoTracker Red staining.

The test system of experiment [1] is Tumor cell lines (H292, HCT116, A375, HCC1569, A498, N87, UACC1093, and UACC647). In words: Single agent tumor cell viability (ATP luminescence), 72 hours. Particulars: in the cell lines tested (FIGS. 1A, 1B, and C). The class given is cell-based. The procedure: (§1) Tumor cell lines (H292, HCT116, A375, HCC1569, A498, N87, UACC1093, and UACC647) were cultured in RPMI 1640 supplemented with 5% fetal bovine serum and housed in a 5% CO2 Incubator at 37° C.
(§2) For single agent IC50 determination, cells were plated on a 96 well microplate and allowed 24 hours to adhere. Drugs were administered to the drug plate by the following: compound stock solutions (10 mM) were added to a drug plate where a 1:10 dilution was performed. Following the dilutions, 2 μl of test compound was transferred to the corresponding wells in the cell-containing 96-well plate with 198 μl of growth media. The compounds were tested over a range of 0.1 pM-100 μM for 72 hours. Following 72 hours of continuous exposure cell viability was determined by measuring the ATP activity using a commercially available cell viability assay kit. Luminescence intensity was used to relative drug activity compared to control wells and used to graphically determine the IC50.

Experiment [2] concerns PLX-4032 resistant melanoma cell lines UACC1093 and UACC647. In words: Combination interaction tumor cell viability (ATP luminescence), 72 hours. The class given is cell-based. The procedure:
as §1
as §2, with “combination interaction experiments,” for “single agent IC50 determination,”, “(20 mM) or combination agent stock solutions (20” for “(10”, “each VT-062 and standard agent” for “test compound”, “196” for “198”, “compound and combination agent was concurrently” for “compounds were”, “IC50 of combination.” for “IC50.”

Experiment [3] deals with A375 Human melanoma tumor cells. Briefly: Human tumor xenograft study. It counts as in vivo. The settings on record: A375 xenograft in female mice, oral, daily for 21 days; after 25 days. The procedure:
Female mice were inoculated subcutaneously in the right flank with 0.1 ml of a 50% RPMI/50% Matrigel™ (BD Biosciences, Bedford, Mass.) mixture containing a suspension of A375 Human melanoma tumor cells (approximately 5×10^6 cells/mouse).
When tumor reached approximately 130 mg, mice were randomized into treatment groups. Body weights were recorded when the mice were randomized and were taken twice per week (on Study Days 3 and 7 for each cycle) thereafter in conjunction with tumor measurements. Treatment began on the day of randomization. Example 10 was delivered orally in a vehicle consisting of 5% DMA, 10% propylene glycol, 20% PEG 400, and 65% sterile water. Example 10 was administered daily for 21 days.
On the technique in general: In xenograft studies the graft and the host belong to different species.

For the molecule `CCN1CCC(Nc2c3c(nc4cc(Cl)ccc24)CCCC3)CC1` [Example 26, 6-Chloro-N-(1-ethylpiperidin-4-yl)-1,2,3,4-tetrahydroacridin-9-amine], in the experiment on lysosome in U2OS cells, the “intensity in LAMP1 staining (image analysis, line scan)” value is “increases”; the LAMP1 staining result was “substantial increases in LAMP1 staining”; the “LysoTracker Red staining” value is on record as “essentially ablated LysoTracker Red staining”; the “intensity of LysoTracker Red staining (image analysis, line scan)” value is given as “less intense LysoTracker Red staining”.

`COc1ccc2nc3cc(Cl)ccc3c(NCCCCN(C)CC3CC3)c2c1` [Example 10, N^1-(6-Chloro-2-methoxyacridin-9-yl)-N^4-(cyclopropylmethyl)-N^4-methylbutane-1,4-diamine]: in experiment [1], the “tumor cell growth inhibition” value was “more than 75%”. Also, the “increase in tumor growth inhibition in combination than Example 10 alone” value in experiment [2] (in combination with PLX-4032, UACC1093 and UACC647 (FIGS. 4A and 4C)) is 2.6-3.25%; in experiment [2] (in combination with Temozelomide, UACC1093 and UACC647 (FIGS. 4B and 4D)) it was 7-30%. Further, the “tumor growth inhibition (tumor weight)” value in experiment [3] is “greater than 50%”.

In the case of `COc1ccc2nc3cc(Cl)ccc3c(NCCCCN3CCN(C)CC3)c2c1` [Example 7, 6-Chloro-2-methoxy-N-(4-(4-methylpiperazin-1-yl)butyl)acridin-9-amine], in the experiment with lysosome in U2OS cells, the “intensity in LAMP1 staining (image analysis, line scan)” value is “increases”; the LAMP1 staining result is listed as “substantial increases in LAMP1 staining”; the “LysoTracker Red staining” value is “essentially ablated LysoTracker Red staining”; the “intensity of LysoTracker Red staining (image analysis, line scan)” value is recorded as “less intense LysoTracker Red staining”.

(Values after patent publication US10544100B2, “Autophagy inhibitors” (priority 2011, dated 2020).)
